Test results as given in paper PMC9189931 (Nature chemical biology, 2021).
Entries after “also recorded” stand apart in the source; their conditions may differ. Numbered stars: 1 amine (or outer) side, 2 acyl side, 3 side chain; on linkers, the order of the positions; unused ones are H or OH. Bridge positions count the residues as written; N and C are the ends. Square brackets hold non-standard residues; d marks the D form. Peptide text beside a SMILES is read from it. I, II: the chains in the order shown. Actinocin(9to1) = Cc1c2oc3c(C)ccc(C(=O)[*:1])c3nc-2c(C(=O)[*:2])c(N)c1=O; NMeV = CN[C@H](C(=O)O)C(C)C; Sar = CNCC(=O)O

Tests used:
endogenous NSD2 = target: T1, endogenous NSD2 (Homo sapiens, UniProt O96028); test: UNC7096 chemical pulldown and chemical proteomics in KMS-11 whole-cell lysates; assay type: binding
T1 sequence (O96028 1-627 limits assumed): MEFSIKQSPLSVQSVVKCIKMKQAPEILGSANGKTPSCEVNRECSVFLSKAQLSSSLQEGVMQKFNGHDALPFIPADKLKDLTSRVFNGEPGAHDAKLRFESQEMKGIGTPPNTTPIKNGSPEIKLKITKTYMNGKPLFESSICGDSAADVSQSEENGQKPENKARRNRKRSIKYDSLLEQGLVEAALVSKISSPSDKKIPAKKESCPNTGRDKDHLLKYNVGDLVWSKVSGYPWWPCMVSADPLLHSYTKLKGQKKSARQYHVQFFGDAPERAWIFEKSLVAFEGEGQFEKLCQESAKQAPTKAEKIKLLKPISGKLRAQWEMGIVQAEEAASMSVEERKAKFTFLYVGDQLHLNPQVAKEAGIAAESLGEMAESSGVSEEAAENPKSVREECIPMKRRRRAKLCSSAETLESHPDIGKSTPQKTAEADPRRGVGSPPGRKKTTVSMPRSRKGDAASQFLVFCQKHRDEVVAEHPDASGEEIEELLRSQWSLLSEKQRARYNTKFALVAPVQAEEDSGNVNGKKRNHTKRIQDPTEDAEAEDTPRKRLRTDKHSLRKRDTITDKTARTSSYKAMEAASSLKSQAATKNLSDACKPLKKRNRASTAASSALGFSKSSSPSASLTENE

NSD2-PWWP1 = target: T2, NSD2-PWWP1 (Homo sapiens, UniProt O96028); test: SPR binding to immobilized NSD2-PWWP1
T2 sequence (O96028 208-368): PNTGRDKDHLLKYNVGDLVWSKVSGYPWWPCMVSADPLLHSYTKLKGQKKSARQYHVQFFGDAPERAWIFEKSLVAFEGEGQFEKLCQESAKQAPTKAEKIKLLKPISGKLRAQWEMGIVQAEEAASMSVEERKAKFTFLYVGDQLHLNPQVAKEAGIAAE

[1] = tested on: panel of 33 methyltransferase domains, including NSD1, NSD2, NSD3 and SETD2; test: Methyltransferase selectivity panel; assay type: biochemical; conditions: 1 and 10 μM compound
[2] = target: T3, dsDNA binding to NSD2-PWWP1 (Homo sapiens, UniProt O96028); test: Fluorescence polarization DNA binding and displacement assay; conditions: FP
T3 sequence (O96028 208-368): T2 sequence (O96028 208-368)

[3] = tested on: ribosomal RNA (rRNA) transcription; test: rRNA transcription; conditions: for pre-rRNA expression levels by RT-qPCR: 5 μM compound at 2, 4, or 16 hours
[4] = target: T4, NSD2-PWWP1 interaction with nucleosomal H3K36me2 (Homo sapiens, UniProt O96028); test: AlphaScreen; assay type: binding
T4 sequence (O96028 208-368): T2 sequence (O96028 208-368)

[5] = tested on: global H3K36 methylation in KMS-11 cells; test: Western blotting for global H3K36 methylation; assay type: cell-based; conditions: 72 h
[6] = tested on: adherent or hematopoietic malignancy cell lines; test: Cytotoxicity profiling; assay type: cell-based; conditions: up to 5 μM over 3–12 d
[7] = target: T5, fl-NSD2 interaction with nucleosomal H3K36me2 (Homo sapiens, UniProt O96028); test: AlphaScreen; assay type: binding; conditions: read-out: IC50, disengagement of fl-NSD2 from nucleosomal H3K36me2, in the presence of SSD (2 μg ml^−1)
T5 sequence (O96028 1-1365): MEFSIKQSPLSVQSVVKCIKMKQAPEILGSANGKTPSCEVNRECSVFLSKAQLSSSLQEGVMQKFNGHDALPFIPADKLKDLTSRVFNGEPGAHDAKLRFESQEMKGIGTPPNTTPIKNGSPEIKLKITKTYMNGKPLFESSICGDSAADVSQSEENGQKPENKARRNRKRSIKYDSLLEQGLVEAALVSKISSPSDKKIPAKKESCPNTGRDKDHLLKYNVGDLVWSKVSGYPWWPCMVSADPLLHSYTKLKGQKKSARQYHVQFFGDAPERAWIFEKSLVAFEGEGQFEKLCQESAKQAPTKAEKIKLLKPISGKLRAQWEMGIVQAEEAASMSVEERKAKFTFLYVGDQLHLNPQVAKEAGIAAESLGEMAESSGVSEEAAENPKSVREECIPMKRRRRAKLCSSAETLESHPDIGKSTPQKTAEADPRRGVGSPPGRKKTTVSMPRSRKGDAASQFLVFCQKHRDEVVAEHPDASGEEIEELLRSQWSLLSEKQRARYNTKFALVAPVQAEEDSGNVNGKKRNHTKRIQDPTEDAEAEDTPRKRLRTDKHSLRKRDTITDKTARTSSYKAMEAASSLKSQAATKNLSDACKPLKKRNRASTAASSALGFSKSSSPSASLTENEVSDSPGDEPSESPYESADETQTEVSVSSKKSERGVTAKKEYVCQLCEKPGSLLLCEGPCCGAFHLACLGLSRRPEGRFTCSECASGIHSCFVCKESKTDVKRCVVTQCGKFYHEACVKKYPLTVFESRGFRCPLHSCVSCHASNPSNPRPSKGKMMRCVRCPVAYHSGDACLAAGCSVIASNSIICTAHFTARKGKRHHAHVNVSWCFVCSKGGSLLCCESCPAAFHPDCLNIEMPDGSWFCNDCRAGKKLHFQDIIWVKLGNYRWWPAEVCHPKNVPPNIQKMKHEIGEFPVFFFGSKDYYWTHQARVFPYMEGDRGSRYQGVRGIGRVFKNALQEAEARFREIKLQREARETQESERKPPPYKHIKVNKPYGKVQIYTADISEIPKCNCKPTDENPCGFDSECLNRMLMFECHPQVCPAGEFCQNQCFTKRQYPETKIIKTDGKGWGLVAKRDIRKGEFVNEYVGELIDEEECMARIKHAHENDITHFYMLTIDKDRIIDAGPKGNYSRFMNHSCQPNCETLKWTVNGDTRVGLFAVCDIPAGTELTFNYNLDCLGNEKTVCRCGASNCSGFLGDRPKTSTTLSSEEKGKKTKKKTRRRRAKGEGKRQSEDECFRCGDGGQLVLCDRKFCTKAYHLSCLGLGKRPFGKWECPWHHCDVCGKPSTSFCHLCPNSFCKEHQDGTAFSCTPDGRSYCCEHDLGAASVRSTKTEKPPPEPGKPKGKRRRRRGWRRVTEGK

[8] = tested on: endogenous NSD2 localization in U2OS cells; test: Confocal microscopy of endogenous NSD2 nucleolar localization; assay type: cell-based; conditions: 4 h; for steady-state pool of nucleolar NSD2 under nucleolar perturbation: actinomycin D 50 nM, doxorubicin 1 μM
[9] = tested on: 15 other human PWWP domains; conditions: DSF, 100 μM compound
[10] = target: human sodium-dependent serotonin transporter (Homo sapiens, UniProt P31645); test: NIMH PDSP panel of CNS receptors, channels and transporters; assay type: binding
[11] = tested on: NSD2-GFP localization in U2OS cells; test: Nucleolar colocalization of GFP-tagged NSD2 WT and mutants with RFP-fibrillarin; assay type: cell-based; conditions: 4 h, 5 μM compound
[12] = tested on: fl-NSD2 chromatin association in KMS-11 cells; test: Cell fractionation, NSD2 release from chromatin; assay type: cell-based; conditions: KMS-11 cell fractionation, 10 μM compound
KMS-11 t(4; 14) MM cells = test: Proliferation of KMS-11 cocultured with OP9 bone marrow stromal cells; assay type: cell-based; conditions: 5 μM for 10 d before seeding on OP9
[13] = tested on: loci-specific H3K36me2 levels in KMS-11 cells; test: H3K36me2 ChIP-qPCR; assay type: cell-based; conditions: 5 μM, 72 h
[14] = tested on: mRNA levels of NSD2 target genes in KMS-11 cells; test: RT-qPCR of NSD2 target genes; assay type: cell-based; conditions: 5 μM, 72 h
[15] = target: T6, NSD3-PWWP1 interaction with histone H3.3 (Homo sapiens, UniProt Q9BZ95); test: NanoBRET PPI assay, NSD3-PWWP1; assay type: cell-based; conditions: U2OS cells, 10 μM compound
T6 sequence (Q9BZ95 270-333 limits assumed): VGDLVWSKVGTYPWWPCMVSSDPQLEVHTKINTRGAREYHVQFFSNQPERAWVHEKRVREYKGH

Sequence of human sodium-dependent serotonin transporter (P31645 whole entry): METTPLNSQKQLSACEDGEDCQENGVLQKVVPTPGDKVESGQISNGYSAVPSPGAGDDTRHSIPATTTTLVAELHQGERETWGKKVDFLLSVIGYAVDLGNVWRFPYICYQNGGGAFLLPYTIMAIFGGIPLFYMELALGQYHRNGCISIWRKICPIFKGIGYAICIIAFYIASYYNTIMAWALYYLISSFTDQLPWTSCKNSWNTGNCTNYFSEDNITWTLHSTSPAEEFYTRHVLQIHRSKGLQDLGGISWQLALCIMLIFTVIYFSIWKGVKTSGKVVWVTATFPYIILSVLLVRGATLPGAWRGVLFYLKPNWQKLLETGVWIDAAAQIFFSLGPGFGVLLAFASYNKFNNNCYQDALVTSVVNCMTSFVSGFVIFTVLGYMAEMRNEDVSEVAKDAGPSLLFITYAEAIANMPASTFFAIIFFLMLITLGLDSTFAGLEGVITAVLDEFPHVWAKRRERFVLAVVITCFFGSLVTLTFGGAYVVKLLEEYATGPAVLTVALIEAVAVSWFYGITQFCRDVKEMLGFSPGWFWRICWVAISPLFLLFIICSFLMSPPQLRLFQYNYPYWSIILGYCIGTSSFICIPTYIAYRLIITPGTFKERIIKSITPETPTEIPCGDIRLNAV

O=C(CCCC[C@@H]1SC[C@@H]2NC(=O)N[C@@H]21)NCCOCCOCCOCCOCCOCCOCCOCCOCCOCCOCCOCCNC(=O)c1ccc(NC(=O)c2ccc(CN(C(=O)c3ccc4c(c3)OCC(=O)N4)C3CC3)cc2)cc1 [UNC7096]
enrichment of NSD2-short and NSD2-long isoforms by pulldown (endogenous NSD2; KMS-11 whole-cell lysates, immunoblotting): efficiently enriched | Kd (NSD2-PWWP1): 46 nM

CC(C)N(Cc1ccc(C(=O)Nc2ccncn2)cc1)C(=O)c1ccc2c(c1)OCC(=O)N2 [UNC7145]
inhibition of methyltransferases [1]: inactive | pattern of dsDNA binding to NSD2-PWWP1 in the presence of compound ([2]; 20 μM compound, NSD2-PWWP1 up to 2.5 μM): No significant difference | displacement of fluorescein-labelled dsDNA from NSD2-PWWP1 ([2]; compound up to 25 μM): no significant effect | proteins depleted from UNC7096 pulldown by competition (endogenous NSD2; label-free proteomics, 20 μM compound, relative to DMSO): did not considerably alter the enrichment profile | pre-rRNA expression levels by RT-qPCR [3]: no major effect | IC50, disruption of NSD2-PWWP1 interaction with nucleosomal H3K36me2 [4]: no measurable effect | global H3K36 methylation [5]: no significant change | acute cytotoxic effects [6]: no acute cytotoxic effects | IC50 [7]: 5100 ± 1000 nM | NSD2 signal within nucleoli ([8]; 5 μM compound): no effect | selectivity over other PWWP domains [9]: inactive

O=C1COc2cc(C(=O)N(Cc3cccs3)C3CC3)ccc2N1 [MRT866]
Kd (NSD2-PWWP1): 349 ± 19 nM

COc1cccc2c1C(=O)c1c(O)c3c(c(O)c1C2=O)C[C@@](O)(C(=O)CO)C[C@@H]3O[C@H]1C[C@H](N)[C@H](O)[C@H](C)O1 [doxorubicin, reference compound]
steady-state pool of nucleolar NSD2 under nucleolar perturbation [8]: sensitive

Cc1c2oc3c(C)ccc(C(=O)N[C@@H]4C(=O)N[C@H](C(C)C)C(=O)N5CCC[C@H]5C(=O)N(C)CC(=O)N(C)[C@@H](C(C)C)C(=O)O[C@@H]4C)c3nc-2c(C(=O)N[C@@H]2C(=O)N[C@H](C(C)C)C(=O)N3CCC[C@H]3C(=O)N(C)CC(=O)N(C)[C@@H](C(C)C)C(=O)O[C@@H]2C)c(N)c1=O [actinomycin D, reference compound] (I: T[dV]P[Sar][NMeV] / II: T[dV]P[Sar][NMeV]; ester I:1-I:C, II:1-II:C; linker I:N-II:N via Actinocin(9to1))
steady-state pool of nucleolar NSD2 under nucleolar perturbation [8]: sensitive

O=C1COc2cc(C(=O)N(Cc3ccc(C(=O)Nc4ccncn4)cc3)C3CC3)ccc2N1 [UNC6934]
inhibition of methyltransferases [1]: did not inhibit any | effect on ribosomal RNA (rRNA) transcription ([3]; 5 μM compound): no significant effect | pre-rRNA expression levels by RT-qPCR [3]: no major effect | Ki [10]: 1400 ± 800 nM | inhibition at 10 µM [10]: > 50% | nucleolar localization of PWWP1 aromatic cage mutant NSD2-GFP [11]: no further increase | nucleolar signal of WT NSD2-GFP [11]: increase in nucleolar signal | nucleolar colocalization of PHD2 and PWWP2 mutant NSD2-GFP ([11]; H762R, W894A): additive effect | release of fl-NSD2 from chromatin [12]: modest release | proliferation of KMS-11 cells grown on bone marrow stroma (KMS-11 t(4; 14) MM cells): no changes | global H3K36 methylation [5]: no significant change; also recorded: no changes | acute cytotoxic effects [6]: no acute cytotoxic effects | loci-specific H3K36me2 levels [13]: did not observe changes | NSD2 signal within nucleoli ([8]; 5 μM compound): increase in NSD2 signal within nucleoli | correlation (PCC) between NSD2 and fibrillarin signals ([8]; 5 μM compound): significant increase | mRNA levels of NSD2 target genes [14]: did not observe changes | BRET signal of NSD3-PWWP1 [15]: unaffected
